Measured values from ChEMBL document CHEMBL4619752, “Optimization and biological evaluation of thiazole-bis-amide inverse agonists of RORγt” (Bioorg Med Chem Lett, 2020).
Converted amounts (≈) assume the structure as drawn.

Experiments:
physchem [1] = details: buffer, pH 7
in vitro [2] = details: rat, microsomes
in vitro [3] = details: human, microsomes
physchem [4] = details: buffer, pH 2
in vivo [5] = details: rat, po, 50 mg/kg
in vivo [6] = details: rat, po, 200 mg/kg
in vivo [7] = details: rat, po, 50 mg/kg; remark: listed apart in the source
in vivo [8] = details: rat, po, 200 mg/kg; remark: listed apart in the source
in vivo [9] = details: rat, po, 50 mg/kg; remark: listed apart in the source
in vivo [10] = details: rat, po, 200 mg/kg; remark: listed apart in the source
in vivo [11] = details: rat, po, 50 mg/kg; remark: listed apart in the source
in vivo [12] = details: rat, po, 200 mg/kg; remark: listed apart in the source
in vivo [13] = details: rat, po, 50 mg/kg; remark: listed apart in the source
in vivo [14] = details: rat, po, 200 mg/kg; remark: listed apart in the source
in vivo [15] = details: rat, po, 50 mg/kg; remark: listed apart in the source
in vivo [16] = details: rat, po, 200 mg/kg; remark: listed apart in the source

Compound	solubility (physchem [1]) [µM]	half-life (in vitro [2]) [h]	half-life (in vitro [3]) [h]	solubility (physchem [4]) [µM]	also measured
CC(C)(O)CNC(=O)c1nc(CC2CCCCC2)c(-c2ccc(S(=O)(=O)NC(C)(C)C)c3ccccc23)s1	< 1	0.783	1.25	–	–
C[C@H](NS(=O)(=O)c1ccc(-c2sc(C(=O)NCC(C)(C)O)nc2C(=O)N2CC[C@H](F)C[C@@H]2C)c(Cl)c1Cl)C(F)(F)F	54 (≈ 35.8 µg/mL)	1.13	> 3	40 (≈ 26.5 µg/mL)	–
C[C@H](NS(=O)(=O)c1ccc(-c2sc(C(=O)NCC(C)(C)O)nc2C(=O)N2CCCC[C@@H]2C)c(Cl)c1Cl)C(F)(F)F	21 (≈ 13.6 µg/mL)	0.817	> 3	19 (≈ 12.3 µg/mL)	–
CC(C)(O)CNC(=O)c1nc(C(=O)N2CCCCC2)c(-c2ccc(S(=O)(=O)NC(C)(C)C)c3ccccc23)s1	1.1 (≈ 0.63 µg/mL)	0.2	1.35	–	–
CC[C@H](NS(=O)(=O)c1ccc(-c2sc(C(=O)NCC(C)(C)O)nc2C(=O)N(CC)CC)c(Cl)c1Cl)C(F)(F)F	44 (≈ 27.9 µg/mL)	> 3	> 3	32 (≈ 20.3 µg/mL)	–
C[C@H](NS(=O)(=O)c1ccc(-c2sc(C(=O)NCC(C)(C)O)nc2C(=O)N2CC[C@@H](F)C[C@@H]2C)c(Cl)c1Cl)C(F)(F)F	47 (≈ 31.2 µg/mL)	–	–	41 (≈ 27.2 µg/mL)	–
C[C@H](NS(=O)(=O)c1ccc(-c2sc(C(=O)NCC(C)(C)O)nc2C(=O)N2CCC(F)CC2)c(Cl)c1Cl)C(F)(F)F	116 (≈ 75.3 µg/mL)	> 3	> 3	114 (≈ 74 µg/mL)	Cmax (in vivo [5]): 11200 ng/mL; Cmax (in vivo [6]): 49400 ng/mL; AUC (in vivo [7]): 31500 ng·h/mL; AUC (in vivo [8]): 282000 ng·h/mL; Cmax at 4 day (in vivo [9]): 252 ng/mL; Cmax at 4 day (in vivo [10]): 1900 ng/mL; AUC (in vivo [11]): 870 ng·h/mL; AUC (in vivo [12]): 6000 ng·h/mL; Cmax at 14 day (in vivo [13]): 417 ng/mL; Cmax at 14 day (in vivo [14]): 1280 ng/mL; AUC (in vivo [15]): 1110 ng·h/mL; AUC (in vivo [16]): 5020 ng·h/mL
C[C@H](NS(=O)(=O)c1ccc(-c2sc(C(=O)NCC(C)(C)O)nc2C(=O)N2CC3CC3C2)c(Cl)c1Cl)C(F)(F)F (some centres undefined)	8.7 (≈ 5.48 µg/mL)	–	–	7 (≈ 4.41 µg/mL)	–
C[C@H](NS(=O)(=O)c1ccc(-c2sc(NC(=O)CC(C)(C)O)nc2C(=O)N2CCC(F)CC2)c(Cl)c1Cl)C(F)(F)F	15 (≈ 9.74 µg/mL)	2.45	> 3	16 (≈ 10.4 µg/mL)	–
C[C@H](NS(=O)(=O)c1ccc(-c2sc(C(=O)NCC(C)(C)O)nc2C(=O)N2CCC[C@@H]2CF)c(Cl)c1Cl)C(F)(F)F	4 (≈ 2.6 µg/mL)	–	–	< 4	–
